Read-outs that look alike come from different tables or passages of the source.
Experiments:
in vitro = in vitro ADME; details: human plasma instead of the 4% albumin solution; read-out: Protein binding (converted)
Experimental: . Therefor, human plasma was used instead of the 4% albumin solution. […]. The values are as expected somewhat higher than the values obtained with the 4% albumin solution and are to be traced back to the presence of other plasma proteins (e.g. α1-acidic glycoprotein) in addition to albumin.
(§1) The plasma protein binding was carried out in three different concentrations (10, 25, and 50 μM). A 4% albumin solution was used as protein solutions. In each case, 50 μl of a 10-fold concentrated substance solution were pipetted in 450 μl of the protein solution. The incubation was carried out for 15 minutes in the shaking water bath at 37° C. Subsequently, the samples were transferred in ultra-filtration units (Vivaspin 500, 10 kDa cut-off) and centrifuged for 15 min at 10.000 rpm. The filtrate was analyzed by HPLC. In addition, a control was run for each concentration, which was not treated with protein and not centrifuged.
. Therefor, instead of the 4% albumin solution, human plasma was used. […]. As anticipated, the values are somewhat higher than the values obtained with the 4% albumin solution and are due to the presence of other plasma proteins (e.g., α1-acidic glycoprotein) besides the albumin.

[1] = tested on: influenza A virus A/342/2009; experiment: microbe, parasite or virus in culture; type: cell-based, influenza A virus H1N1; details: for IC50: read-out: 50% inhibitory concentration, A/342/2009
albumin = albumin (Homo sapiens, UniProt P02768); type: in vitro ADME; details: 4% albumin solution, average of three concentrations (10, 25, 50 μM)
Experimental: 3. Determination of Protein Binding of the Amidine Effective Form (3) as Well as of Prodrugs Thereof (2, 4) and of the Guanidine Effective Form (9) as Well as of Prodrugs Thereof (6, 10)
as §1

[2] = tested on: influenza A virus A/Jena/5258/2009; experiment: microbe, parasite or virus in culture; type: cell-based, influenza A virus H1N1; details: Influenza A virus, MDCK, read-out: 50% inhibitory concentration, A/Jena/5258/2009
in vivo = details: rat; for Plasma level of derivative 9 (Conc.): intravenous administration of derivative 9, 10 mg/kg
Experimental: Sprague Dawley (SD) rats were supplied for habitation 10 days before the start of the experiment, weighing ˜300-350 g and kept in an air conditioned room with a constant temperature of 20° C. and a humidity of 50%. In this room there was a day-night rhythm of twelve hours. The dark phase began daily at 18 o'clock and turned over to the light phase at 6 clock. The rats were kept over the acclimatization period in standard cages of the size 3 (length: 42 cm, width 26 cm, height: 15 cm) and transferred three days before commencement of an experiment into a special experimental room, placed in the identical environmental conditions. They received a maintenance diet (maintenance diet for rats and mice; No. 1320; Altromin) and tap water ad libitum.
A catheter was implanted in the vein as well as in the arteria femoralis of rats receiving an i.v. administration. Rats receiving only oral administration of substances received a […] catheter only.
The catheterized animals were kept after surgery for a day in the experimental room and individually in their experimental cages. The application of the test compounds was carried out on the second day after the operation. On the experimental day, the rats were weighed one hour prior to the test and the arterial catheter was flushed with 300 μl of heparin solution. Subsequently, the i.v. or oral administration of the compounds was carried out.
The oral administrations were performed as a suspension or solution made with gum arabic (10% w/v) by gavage.
The oral administrations were made as suspension or solution with gum arabic (10% w/v) by gavage.
After i.v. administration, plasma samples were taken at 5, 10, 20, 45, 90, 150, 240 and 360 min, respectively after oral administration after 30, 60, 90, 120, 180, 240 and 360 min. To this, in each case 300 μl of whole blood were taken using an insulin syringe and transferred into EDTA-coated Microvettes CB 300 (Sarstedt, Nümbrecht). After each withdrawal it was rinsed with 100 μl 0.9% saline or every 60 min with heparin solution (250 IU/ml). The blood sample was shaken briefly and put until centrifugation (4° C.; 14000 U/min; 10 min) on ice. Subsequently, the samples were frozen at −80° C.
The plasma samples were processed and analyzed by HPLC. Therefor, the plasma samples were thawed at room temperature. In each case, 80 μl methanol (+0.2% TFA) were prepared and subsequently 80 μl of the plasma samples were pipetted into. The samples were shaken for 45 min to precipitate plasma proteins. The samples were frozen at −80° C., thawed and shaken for another 15 min. The samples were centrifuged for 15 min at 13.000 RPM and the supernatant was transferred into HPLC vials. In each case 50 μl were used for the determinations by LC/MS.
The animal studies were evaluated using the following LC/MS method.

physchem = type: physicochemical; details: aqueous buffer, thermodynamic from solid
Experimental: 2. Solubility Assays of the Compounds Tested
Determining the Solubility at Different pH Values:
Therefor, a few mg of the compounds were weighed and mixed with the volume of 50 mM KH2PO4 buffer of respective pH value for a 50 mM solution. […] Subsequently, the undissolved portion was removed by centrifugation at 10.000 rpm for 15 min, and the concentration in the supernatant was determined by HPLC.

[3] = tested on: influenza A virus A/Jena/5258/2009 (pandemic H1N1; oseltamivir-sensitive); type: cell-based
[4] = biological target: neuraminidase of influenza A virus A/Jena/5258/2009 (H1N1-subtype) (Influenza A virus, UniProt A0A088CA11); experiment: biochemical
[5] = type: in vitro ADME, human; details: 37° C., up to 120 min
Experimental: (§2) In addition, the substances were tested in human and murine plasma. Therefor, 630 μl of the plasma as mixed with 70 μl of a 2 mM stock solution of each compound in 10 mM phosphate buffer pH 7.4. The incubations were performed in a shaking water bath at 37° C. The incubation was terminated at the times 15, 30, 45, 60, 90 and 120 min by removal of 100 μl sample and addition of 100 μl acetonitrile. The samples were centrifuged (12,000 rpm/10 min) and the supernatant surveyed by HPLC.
(§3) The stability studies were analyzed using the following HPLC method.

[6] = type: physicochemical; details: 0.2 mg/ml, pH 7.4 at RT and 4° C. or Aqua bidest at 4° C., 14 days
Experimental: The storage stability in solution was determined at a concentration of 0.2 mg/ml. Therefor, a compound was dissolved in 50 mM KH2PO4 buffer, pH 7.4 respectively Aqua bidest and stored at RT (pH 7.4) or in a refrigerator at 4° C. (pH 7.4 respectively Aqua bidest) over the test period. The concentration of the active form was determined after 12 h, 1 d, 2 d, 4 d, 7 d and 14 d by HPLC.
Stability Studies for the Amidine Effective Form (3) and Guanidine Effective Form (9) Over 2 Weeks Studies at pH 7.4:
The storage stability in dissolved form was determined at a concentration of 0.2 mg/ml. For this purpose, the compound was dissolved in 50 mM KH2PO4 buffer pH 7.4 or in aqua bidest and stored for the investigation period at RT (pH 7.4) or in a refrigerator at 4° C. (pH 7.4 or aqua bidest). The concentration of the effective form was determined by HPLC after 12 h, 1 d, 2 d, 4 d, 7 d and 14 d.

[7] = type: in vitro ADME, murine; details: 37° C., up to 120 min
Experimental: as §2, §3

[8] = rat, in vivo; cited from earlier work
[9] = Sprague Dawley, in vivo, iv, 10 mg/kg
[10] = Sprague Dawley, in vivo, po, 50 mg/kg

Chain of albumin (P02768 25-609): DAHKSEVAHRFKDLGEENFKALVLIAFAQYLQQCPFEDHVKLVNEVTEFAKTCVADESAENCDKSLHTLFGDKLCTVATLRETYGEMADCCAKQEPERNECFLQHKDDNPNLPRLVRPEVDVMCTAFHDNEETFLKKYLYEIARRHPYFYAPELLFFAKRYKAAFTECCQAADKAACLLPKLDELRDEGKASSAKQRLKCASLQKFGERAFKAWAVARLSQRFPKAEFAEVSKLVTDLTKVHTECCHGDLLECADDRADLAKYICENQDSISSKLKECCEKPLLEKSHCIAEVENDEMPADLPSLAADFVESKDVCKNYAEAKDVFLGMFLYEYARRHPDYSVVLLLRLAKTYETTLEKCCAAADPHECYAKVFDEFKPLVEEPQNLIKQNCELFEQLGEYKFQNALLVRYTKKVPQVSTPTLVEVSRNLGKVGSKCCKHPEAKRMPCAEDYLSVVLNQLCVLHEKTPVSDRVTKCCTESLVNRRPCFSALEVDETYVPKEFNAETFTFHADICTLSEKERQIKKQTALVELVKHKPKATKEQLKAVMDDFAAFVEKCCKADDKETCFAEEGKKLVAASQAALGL

In the case of CCC(CC)O[C@@H]1C=C(C(=O)O)C[C@H](NC(C)=N)[C@H]1NC(C)=O [Compound 3], the fraction unbound (in vitro) is reported as 0.963, the IC50 ([1]; Influenza A virus, MDCK) is reported as 12.2 µM and the IC50 [1] is reported as 12.1 µM. For the same compound, the Protein binding (albumin) was 2.2 ± 1.5%, the IC50 [2] was 2 µM and the Bioavailability (in vivo; [9]) was 100%. For the same compound, the MRT (in vivo; [9]) was 0.587 h, the half-life (in vivo; [9]) was 0.642 h and the half-life (in vivo; Sprague Dawley, in vivo, po) was about 1.87 h. For the same compound, the Bioavailability (in vivo; [10]) was 3.0%, the MRT (in vivo; [10]) was 1.867 h and the cmax (in vivo; [10]) was 0.7 µg/mL. The “Plasma level of derivative 3 (Conc.) after oral administration of the labelled derivative” value (from here on “Plasma level … of the labelled derivative”) (in vivo; Sprague Dawley, in vivo, po, 50 mg/kg, 0 min) was 0 nM, the “Plasma level … of the labelled derivative” value (in vivo; Sprague Dawley, in vivo, po, 50 mg/kg, 30 min) was 1630 nM and the “Plasma level … of the labelled derivative” value (in vivo; Sprague Dawley, in vivo, po, 50 mg/kg, 60 min) was 1590 nM. The “Plasma level … of the labelled derivative” value (in vivo; Sprague Dawley, in vivo, po, 50 mg/kg, 90 min) was 1500 nM, the “Plasma level … of the labelled derivative” value (in vivo; Sprague Dawley, in vivo, po, 50 mg/kg, 120 min) was 1250 nM and the “Plasma level … of the labelled derivative” value (in vivo; Sprague Dawley, in vivo, po, 50 mg/kg, 180 min) was 610 nM. For the same compound, the “Plasma level … of the labelled derivative” value (in vivo; Sprague Dawley, in vivo, po, 50 mg/kg, 240 min) was 300 nM, the “Plasma level … of the labelled derivative” value (in vivo; Sprague Dawley, in vivo, po, 50 mg/kg, 360 min) was 40 nM and the AUC (in vivo; Iv, 10 mg/kg, active form 3 in plasma) was 576.8. For the same compound, the solubility at 30 min (physchem) was over 50 mM, the “90% inhibitory concentration, A/Jena/5258/2009” value (“90% inhibitory concentration” for short) [3] was 0.001 (0.011) μM and the “95% inhibitory concentration (values in parentheses), A/Jena/5258/2009” value (“95% inhibitory concentration” for short) [3] was 0.001 (0.011) μM. For the same compound, the IC50 [4] was 0.0001 µM.
For CCC(CC)O[C@@H]1C=C(C(=O)O)C[C@H](NC(=N)N)[C@H]1NC(C)=O [Compound 9, (3R,4R,5S)-4-acetamido-5-(N-guanidino)-3-(1-ethylpropoxy)cyclohex-1-en-1-carboxylic acid], the “Stability/metabolism by plasma enzymes in human plasma” value [5] was “not metabolized”, the fraction unbound (in vitro) was 0.914 and the IC50 ([1]; Influenza A virus, MDCK) was 4.1 µM. The “Storage stability in solution” value [6] was “stable”, the Protein binding (albumin) was 0.4 ± 2.8% and the IC50 [2] was 1.1 µM. For the same compound, the AUC (in vivo; [9]) was 4880 ng·h/mL, the Bioavailability (in vivo; [9]) was 100% and the MRT (in vivo; [9]) was 0.902 h. The half-life (in vivo; [9]) was 2 h, the half-life (in vivo; Sprague Dawley, in vivo, po) was about 1.63 h and the “Plasma level of derivative 9 (Conc.)” value (in vivo; time 5) was 23710 nM. The “Plasma level of derivative 9 (Conc.)” value (in vivo; time 10) was 18300 nM, the “Plasma level of derivative 9 (Conc.)” value (in vivo; time 20) was 12670 nM and the “Plasma level of derivative 9 (Conc.)” value (in vivo; time 45) was 5050 nM. The “Plasma level of derivative 9 (Conc.)” value (in vivo; time 90) was 1670 nM, the “Plasma level of derivative 9 (Conc.)” value (in vivo; time 150) was 540 nM and the “Plasma level of derivative 9 (Conc.)” value (in vivo; time 240) was 230 nM. For the same compound, the “Plasma level of derivative 9 (Conc.)” value (in vivo; time 360) was 110 nM, the “90% inhibitory concentration” value [3] was 0.002 (0.003) μM and the “95% inhibitory concentration” value [3] was 0.002 (0.003) μM. The “Stability/metabolism by plasma enzymes in murine plasma” value [7] was “not metabolized”.
In the case of CCOC(=O)C1=C[C@@H](OC(CC)CC)[C@H](NC(C)=O)[C@@H](N)C1 [Oseltamivir, (3R,4R,5S)-4-acetamido-5-amino-3-(1-ethylpropoxy)cyclohex-1-en-1-carboxylic acid ethyl ester, reference compound], the plasma half-life period [8] is given as 0.733 h, the “50% inhibitory concentration, A/342/2009” value [1] is given as “resistant” and the IC50 [2] is given as 13.2 µM. The “90% inhibitory concentration” value [3] was 0.016 (0.021) μM, the “95% inhibitory concentration” value [3] was 0.016 (0.021) μM and the IC50 [4] was 0.0001 µM.

Reference: patent US9828333B2, “Compounds for the treatment of influenza” (CHRISTIAN-ALBRECHTS-UNIVERSITAT ZU KIEL, priority 2011, dated 2017)
